Patent US20110306600A1, “NOVEL THERAPEUTIC COMPOUNDS” (Grunenthal GmbH, priority 2010, published 2011)

Assay: Thermal tail-flick test on rats
Type: in vivo, rat
Conditions: 3 mg/kg injection in saline, against placebo, TFL measured approximately every hour
Description: Therapeutic Solutions: The compound 2 90 mg was dissolved in 30 ml of saline solution and the injection volume was calculated as 1 ml/kg to achieve 3 mg/kg of compound of Formula 31. The placebo solution was identical except it is devoid of any drug.
Tail-Flick Test: The experimentation was started by selecting ten at least 90-100 days old and were all weighed to determine the volume of experimental and placebo solution. Each rat, was habituated for three days to handling and the tail flick procedure and without heat exposure. In the administration, each animal was only used for one day of experiments, and given only one dose of drug, or placebo solution. The technique of D'Amour and Smith (1941) relies on latency to flick of the tail from onset of a focused beam of intense light. This method, employed for decades, has now been augmented by the ability to monitor temperature at the site of exposure. Columbus Instruments model TF-2 model was warmed, on the day of the experiment, for at least 30 minutes. The intensity of the lamp was adjusted so that baseline tail-flick latency for rats is equal to approximately 2.0 seconds. The intensity was set to 40% as this was determined to be the ideal intensity from the intensity response curve. […] The baseline value was determined for each animal prior to injection. The TFL was measured approximately every hour. The semilog means were calculated.

CC12CC3CC(C)(C1)CC(NC(=O)C1(CN)CCCCC1)(C3)C2 [Formula 2]
time course of antinociceptive effect in the thermal tail flick test (FIG. 1): antinociceptive effect
